Biological target: T1, recombinant full-length human prolyl endopeptidase (PREP) (Homo sapiens, UniProt P48147)
T1 construct: To recombinant full-length human prolyl endopeptidase (PREP, R&D-Systems, 4308-SE); purchased R&D-Systems 4308-SE
T1 sequence (P48147 1-710): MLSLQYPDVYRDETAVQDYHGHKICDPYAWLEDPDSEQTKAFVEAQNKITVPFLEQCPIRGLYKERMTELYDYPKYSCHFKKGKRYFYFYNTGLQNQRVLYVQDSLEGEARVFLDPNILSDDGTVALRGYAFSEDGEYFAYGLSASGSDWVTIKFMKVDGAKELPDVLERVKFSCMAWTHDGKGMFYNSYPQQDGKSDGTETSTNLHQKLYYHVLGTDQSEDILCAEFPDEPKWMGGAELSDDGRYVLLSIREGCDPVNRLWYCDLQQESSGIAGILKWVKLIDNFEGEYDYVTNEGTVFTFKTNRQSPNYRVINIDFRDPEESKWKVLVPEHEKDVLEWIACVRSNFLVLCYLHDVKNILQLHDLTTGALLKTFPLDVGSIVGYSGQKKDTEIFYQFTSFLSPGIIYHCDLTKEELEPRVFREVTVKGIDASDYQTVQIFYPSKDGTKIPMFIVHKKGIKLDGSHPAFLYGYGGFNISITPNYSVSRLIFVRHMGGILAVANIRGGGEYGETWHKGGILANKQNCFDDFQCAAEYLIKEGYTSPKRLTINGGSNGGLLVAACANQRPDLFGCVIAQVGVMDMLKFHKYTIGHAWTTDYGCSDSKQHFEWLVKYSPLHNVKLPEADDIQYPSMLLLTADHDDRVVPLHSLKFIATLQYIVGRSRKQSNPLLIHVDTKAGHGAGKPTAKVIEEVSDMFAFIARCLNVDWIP
Assay: Biochemical human prolyl endopeptidase (PREP) assay with fluorescently labelled substrate
Conditions: substrate Z-Gly-Pro-AMC 50 μM, 32° C., 60 min; some as mean values from multiple independent determinations
How it was run: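 Initial rates of fluorescence increase from 50 μM Z-Gly-Pro-AMC cleavage (ex 360/em 465 nm, 60 min, 32° C) give percent PREP activity versus no-compound control, and IC50 is interpolated. Enzyme used at 0.4 nM (final, example) in Tris pH 7.5 with EDTA, GSH, BSA and Brij-35; compounds span 1 nM to 30 μM.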

Row | IC50 | SMILES
1 | 120 nM | O=C(C1CC(C(F)(F)F)Cc2nn(Cc3ccnc(C(F)(F)F)c3F)c(=O)n21)N1CC(F)C1 (single isomer, unassigned) [Example 253, (5RS,7RS)-5-[(3-Fluoroazetidin-1-yl)carbonyl]-2-{[3-fluoro-2-(trifluoromethyl)pyridin-4-yl]methyl}-7-(trifluoromethyl)-5,6,7,8-tetrahydro[1,2,4]triazolo[4,3-a]pyridin-3(2H)-one]
2 | 30.5 nM | O=C(C1CC(C(F)(F)F)Cc2nn(Cc3ccnc(C(F)(F)F)c3F)c(=O)n21)N1CC(F)C1 (single isomer, unassigned) [Example 254, (5RS,7RS)-5-[(3-Fluoroazetidin-1-yl)carbonyl]-2-{[3-fluoro-2-(trifluoromethyl)pyridin-4-yl]methyl}-7-(trifluoromethyl)-5,6,7,8-tetrahydro[1,2,4]triazolo[4,3-a]pyridin-3(2H)-one]
3 | 15.1 nM | O=C(C1CC(C(F)(F)F)Cc2nn(Cc3ccnc(C(F)(F)F)c3F)c(=O)n21)N1CC(F)C1 (single isomer, unassigned) [Example 255, (5RS,7RS)-5-[(3-Fluoroazetidin-1-yl)carbonyl]-2-{[3-fluoro-2-(trifluoromethyl)pyridin-4-yl]methyl}-7-(trifluoromethyl)-5,6,7,8-tetrahydro[1,2,4]triazolo[4,3-a]pyridin-3(2H)-one]
4 | 0.595 nM | O=C(C1CC(C(F)(F)F)Cc2nn(Cc3ccnc(C(F)(F)F)c3F)c(=O)n21)N1CC[C@H](F)C1 (single isomer, unassigned) [Example 257]
5 | 91.5 nM | O=C(C1CC(C(F)(F)F)Cc2nn(Cc3ccnc(C(F)(F)F)c3F)c(=O)n21)N1CC[C@H](F)C1 (single isomer, unassigned) [Example 258]
6 | 17 nM | O=C(C1CC(C(F)(F)F)Cc2nn(Cc3ccnc(C(F)(F)F)c3F)c(=O)n21)N1C[C@@H](F)[C@@H](F)C1 (single isomer, unassigned) [Example 259]
7 | 2.6 nM | O=C(C1CC(C(F)(F)F)Cc2nn(Cc3ccnc(C(F)(F)F)c3F)c(=O)n21)N1C[C@@H](F)[C@@H](F)C1 (single isomer, unassigned) [Example 260]
8 | 1 nM | O=C(C1CC(C(F)(F)F)Cc2nn(Cc3ccnc(C(F)(F)F)c3F)c(=O)n21)N1C[C@@H](F)[C@@H](F)C1 (single isomer, unassigned) [Example 261]
9 | 790 nM | O=C(C1CC(C(F)(F)F)Cc2nn(Cc3ccnc(C(F)(F)F)c3F)c(=O)n21)N1C[C@@H](F)[C@@H](F)C1 (single isomer, unassigned) [Example 262]
10 | 1.3 nM | O=C(C1CC(C(F)(F)F)Cc2nn(Cc3ncc(Cl)cc3F)c(=O)n21)N1CC[C@H](F)C1 (single isomer, unassigned) [Example 265]
11 | 2.3 nM | O=C(C1CC(C(F)(F)F)Cc2nn(Cc3ncc(Cl)cc3F)c(=O)n21)N1C[C@@H](F)[C@@H](F)C1 (single isomer, unassigned) [Example 267]
12 | 23 nM | O=C(C1CC(C(F)(F)F)Cc2nn(Cc3cncc(Cl)c3)c(=O)n21)N1C[C@@H](F)[C@@H](F)C1 (single isomer, unassigned) [Example 268]
13 | 4.2 nM | O=C(C1CC(C(F)(F)F)Cc2nn(Cc3cncc(Cl)c3)c(=O)n21)N1C[C@@H](F)[C@@H](F)C1 (single isomer, unassigned) [Example 269]
14 | 0.695 nM | O=C(C1CCC(C(F)(F)F)c2nn(Cc3ccc(C(F)(F)F)nc3)c(=O)n21)N1CC[C@H](F)C1 (single isomer, unassigned) [Example 272]
15 | 2.2 nM | O=C(C1C(C(F)(F)F)CCc2nn(Cc3ccnc(C(F)(F)F)c3F)c(=O)n21)N1CC[C@H](F)C1 (single isomer, unassigned) [Example 281]
16 | 6.2 nM | O=C(C1C(C(F)(F)F)CCc2nn(Cc3ncc(Cl)cc3Cl)c(=O)n21)N1CC[C@H](F)C1 (single isomer, unassigned) [Example 283]
17 | 1.3 nM | O=C(C1C(C(F)(F)F)CCc2nn(Cc3ccc(C(F)(F)F)nc3)c(=O)n21)N1CC[C@H](F)C1 (single isomer, unassigned) [Example 285]
18 | 98.5 nM | O=C(C1C(C(F)(F)F)CCc2nn(Cc3ccc(C(F)(F)F)nc3)c(=O)n21)N1CC[C@H](F)C1 (single isomer, unassigned) [Example 286]
19 | 16 nM | O=C(C1C(C(F)(F)F)CCc2nn(Cc3ncc(Cl)cc3Cl)c(=O)n21)N1C[C@@H](F)[C@@H](F)C1 (single isomer, unassigned) [Example 288]
20 | 82 nM | O=C(C1C(C(F)(F)F)CCc2nn(Cc3ncc(Cl)cc3Cl)c(=O)n21)N1CCC(F)(F)C1 (single isomer, unassigned) [Example 290, (5RS,6RS)-2-[(3,5-Dichloropyridin-2-yl)methyl]-5-[(3,3-difluoropyrrolidin-1-yl)carbonyl]-6-(trifluoromethyl)-5,6,7,8-tetrahydro[1,2,4]triazolo[4,3-a]pyridin-3(2H)-one]
21 | 37 nM | O=C(C1C(C(F)(F)F)CCc2nn(Cc3ncc(Cl)cc3F)c(=O)n21)N1C[C@@H](F)[C@@H](F)C1 (single isomer, unassigned) [Example 292]
22 | 85 nM | O=C(C1C(C(F)(F)F)CCc2nn(Cc3ncc(Cl)cc3F)c(=O)n21)N1C[C@@H](F)[C@@H](F)C1 (single isomer, unassigned) [Example 293]
23 | 12 nM | O=C(C1C(C(F)(F)F)CCc2nn(Cc3ncc(Cl)cc3F)c(=O)n21)N1CC[C@H](F)C1 (single isomer, unassigned) [Example 295]
24 | 115 nM | O=C(C1C(C(F)(F)F)CCc2nn(Cc3ncc(Cl)cc3F)c(=O)n21)N1CCC(F)(F)C1 (single isomer, unassigned) [Example 297, (5RS,6RS)-2-[(5-Chloro-3-fluoropyridin-2-yl)methyl]-5-[(3,3-difluoropyrrolidin-1-yl)carbonyl]-6-(trifluoromethyl)-5,6,7,8-tetrahydro[1,2,4]triazolo[4,3-a]pyridin-3(2H)-one]
25 | 3.5 nM | O=C(C1C(C(F)(F)F)CCc2nn(Cc3ccc(Cl)cn3)c(=O)n21)N1CC[C@H](F)C1 (single isomer, unassigned) [Example 299]
26 | 19.5 nM | O=C(C1C(C(F)(F)F)CCc2nn(Cc3ccc(Cl)cn3)c(=O)n21)N1C[C@@H](F)[C@@H](F)C1 (single isomer, unassigned) [Example 301]
27 | 35 nM | O=C(C1C(C(F)(F)F)CCc2nn(Cc3ccnc(C(F)(F)F)c3F)c(=O)n21)N1CC(F)C1 (single isomer, unassigned) [Example 303, (5RS,6RS)-5-[(3-Fluoroazetidin-1-yl)carbonyl]-2-{[3-fluoro-2-(trifluoromethyl)pyridin-4-yl]methyl}-6-(trifluoromethyl)-5,6,7,8-tetrahydro[1,2,4]triazolo[4,3-a]pyridin-3(2H)-one]
28 | 14 nM | O=C(C1C(C(F)(F)F)CCc2nn(Cc3ccc(C(F)(F)F)nc3)c(=O)n21)N1CC(F)C1 (single isomer, unassigned) [Example 305, (5RS,6RS)-5-[(3-Fluoroazetidin-1-yl)carbonyl]-6-(trifluoromethyl)-2-{[6-(trifluoromethyl)pyridin-3-yl]methyl}-5,6,7,8-tetrahydro[1,2,4]triazolo[4,3-a]pyridin-3(2H)-one]
